# Test results published in patent US20250313563A1, “GLYCOGEN SYNTHASE KINASE 3 INHIBITORS AND USES THEREOF” (The Broad Institute, Inc., priority 2022, published 2025).
# Like-named read-outs stand apart in the source and are kept apart here.
# Tests used:
# [1] = molecular target: GSK3α (GST-full length GSK3α) (Homo sapiens (Human), UniProt P49840); assay: GSK3α TR-FRET kinase assay; assay type: biochemical
# Summary of the method: (§1)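 Compound was preincubated 30 min with 1 nM GST-GSK3 enzyme. Reaction ran 100 min at ambient temperature in Tris pH 7.5/MgCl2 with 200 nM biotinylated pS645-glycogen synthase 631-650 peptide and ATP (4 μM GSK3α, 2 μM GSK3b, or 1 mM). The EDTA-stopped reaction was read by TR-FRET (Tb-anti-pSer641/streptavidin-d2), and IC50s were fitted.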
# [2] = molecular target: GSK3b (GST-full length GSK3b) (Homo sapiens (Human), UniProt P49841); assay: GSK3b TR-FRET kinase assay; assay type: biochemical
# Sequence of GSK3b (GST-full length GSK3b) (P49841 whole entry): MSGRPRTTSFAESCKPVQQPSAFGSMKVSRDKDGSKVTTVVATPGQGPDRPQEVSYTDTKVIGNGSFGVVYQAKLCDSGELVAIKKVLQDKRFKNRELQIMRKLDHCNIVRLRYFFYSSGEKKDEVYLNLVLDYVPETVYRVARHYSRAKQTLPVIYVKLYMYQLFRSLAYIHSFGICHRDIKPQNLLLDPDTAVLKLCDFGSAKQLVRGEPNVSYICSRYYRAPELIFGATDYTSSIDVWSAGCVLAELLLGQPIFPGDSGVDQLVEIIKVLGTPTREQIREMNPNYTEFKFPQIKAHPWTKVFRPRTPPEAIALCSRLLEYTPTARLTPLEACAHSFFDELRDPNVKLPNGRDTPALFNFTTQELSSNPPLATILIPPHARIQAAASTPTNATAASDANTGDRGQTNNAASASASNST
# Summary of the method: as §1
# [3] = 1 nM GSK3α, 4 μM ATP, 30 minute preincubation, Table 16, read-out: GSK3-A TR-FRET BIOCHEMICAL (TR-FRET), IC50
# [4] = read-out: GSK3-A (TR-FRET 1 mM ATP), GMean, IC50, 1 mM ATP, geometric mean
# [5] = 1 nM GSK3b, 2 μM ATP, 30 minute preincubation, Table 16, read-out: GSK3-B TR-FRET BIOCHEMICAL (TR-FRET), IC50
# [6] = read-out: GSK3-B (TR-FRET 1 mM ATP), GMean, IC50, 1 mM ATP, geometric mean
# [7] = 1 nM GSK3α, 4 μM ATP, 30 minute preincubation, Table 16, read-out: GSK3-A TR-FRET BIOCHEMICAL (TR-FRET)
# [8] = 1 nM GSK3b, 2 μM ATP, 30 minute preincubation, Table 16, read-out: GSK3-B TR-FRET BIOCHEMICAL (TR-FRET)
# [9] = 1 nM GSK3α, 4 μM ATP, 30 minute preincubation, geometric mean, read-out: GSK3-A TR-FRET BIOCHEMICAL (TR-FRET), GMean, IC50
# [10] = 1 nM GSK3b, 2 μM ATP, 30 minute preincubation, geometric mean, read-out: GSK3-B TR-FRET BIOCHEMICAL (TR-FRET), GMean, IC50
# [11] = GSK3-A (TR-FRET 1 mM ATP), GMean, IC50, 1 mM ATP, geometric mean
# [12] = GSK3-B (TR-FRET 1 mM ATP), GMean, IC50, 1 mM ATP, geometric mean
# [13] = 1 nM GSK3α, 4 μM ATP, 30 minute preincubation, read-out: GSK3-A TR-FRET BIOCHEMICAL (TR-FRET), IC50
# [14] = 1 nM GSK3b, 2 μM ATP, 30 minute preincubation, read-out: GSK3-B TR-FRET BIOCHEMICAL (TR-FRET), IC50
# Sequence of GSK3α (GST-full length GSK3α) (P49840 whole entry): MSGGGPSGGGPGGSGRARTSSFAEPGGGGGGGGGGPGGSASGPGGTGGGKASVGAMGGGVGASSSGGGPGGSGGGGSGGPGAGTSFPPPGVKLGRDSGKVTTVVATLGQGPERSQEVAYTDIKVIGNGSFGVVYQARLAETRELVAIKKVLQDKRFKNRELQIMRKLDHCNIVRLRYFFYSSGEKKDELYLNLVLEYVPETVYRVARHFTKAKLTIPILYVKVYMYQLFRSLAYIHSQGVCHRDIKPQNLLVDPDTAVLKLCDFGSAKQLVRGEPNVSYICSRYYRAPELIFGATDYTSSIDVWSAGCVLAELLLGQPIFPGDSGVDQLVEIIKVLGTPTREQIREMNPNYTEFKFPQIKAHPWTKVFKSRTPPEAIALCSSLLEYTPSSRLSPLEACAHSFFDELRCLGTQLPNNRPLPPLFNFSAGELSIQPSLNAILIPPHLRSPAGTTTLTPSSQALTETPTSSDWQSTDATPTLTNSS
smiles,measurement,setting,value
CCC1(c2cccc(N3CCCc4ncccc43)c2)C2=C(CC(C)(C)CC2=O)Nc2n[nH]cc21 (stereo not drawn) [Compound 889639],IC50,[1]; [3],≤ 100 nM
same,IC50,[1]; [4],≤ 100 nM
same,IC50,[2]; [5],≤ 100 nM
same,IC50,[2]; [6],100 to 1000 nM
CC[C@]1(c2cccc(-c3ccnnc3)c2)C2=C(CC(C)(C)CC2=O)Nc2n[nH]cc21 [Compound 929454],IC50,[1]; [3],≤ 100 nM
same,IC50,[1]; [4],100 to 1000 nM
same,IC50,[2]; [5],≤ 100 nM
same,IC50,[2]; [6],1000 to 5000 nM
C[C@H]1C[C@@]2(CCO1)C1=C(CC(C)(C)CC1=O)Nc1n[nH]cc12 [Compound 899560],IC50,[1]; [7],100 to 1000 nM
same,IC50,[2]; [8],1000 to 5000 nM
CCC1(c2cccc(-c3cnn(C)c3C#N)c2)C2=C(CC(C)(C)NC2=O)Nc2n[nH]cc21 (stereo not drawn) [Compound 948827],IC50,[1]; [9],≤ 100 nM
same,IC50,[2]; [10],100 to 1000 nM
CC[C@]1(c2ccccc2)C2=C(CC(C)(C)[C@@H](F)C2=O)Nc2n[nH]cc21 [Compound 957404],IC50,[1]; [7],> 5000 nM
same,IC50,[2]; [8],> 5000 nM
CCC1(c2cccc(-c3cn(C)nc3C(C)C)c2)C2=C(CC(C)(C)NC2=O)Nc2n[nH]cc21 (stereo not drawn) [Compound 949111],IC50,[1]; [9],100 to 1000 nM
same,IC50,[2]; [10],1000 to 5000 nM
CC[C@]1(c2cccc(N(C)C(=O)c3ccn(C)n3)c2)C2=C(CC(C)(C)CC2=O)Nc2n[nH]cc21 [Compound 929442],IC50,[1]; [3],≤ 100 nM
same,IC50,[2]; [5],100 to 1000 nM
CC1(C)CC(=O)C2=C(C1)Nc1n[nH]cc1C21CCN(S(=O)(=O)c2cc(Cl)ccc2Cl)CC1 [Compound 948122],IC50,[1]; [7],≤ 100 nM
same,IC50,[2]; [8],100 to 1000 nM
CCC1(c2cccc(Br)c2)C2=C(CC(C)(C)CC2=O)Nc2n[nH]cc21 (stereo not drawn) [Compound 790733],IC50,[1]; [9],≤ 100 nM
same,IC50,[1]; [4],100 to 1000 nM
same,IC50,[2]; [10],≤ 100 nM
same,IC50,[2]; [6],1000 to 5000 nM
CCC1(CC)C2=C(CC(C)(C)CC2=O)Nc2n[nH]c(C)c21 [Compound 786061],IC50,[1]; [7],100 to 1000 nM
same,IC50,[2]; [8],> 1670 nM
CC[C@@]1(c2cccc(C(F)(F)F)c2)C2=C(Nc3n[nH]cc31)c1ccccc1C2=O [Compound 949742],IC50,[1]; [3],100 to 1000 nM
same,IC50,[2]; [5],100 to 1000 nM
CC[C@@]1(c2cccc(C(F)(F)F)c2)C2=C(CCN(c3ccsc3)C2=O)Nc2n[nH]cc21 [Compound 952630],IC50,[1]; [3],≤ 100 nM
same,IC50,[2]; [5],100 to 1000 nM
Cn1ccc(S(=O)(=O)N2CC[C@]3(C2)C2=C(CC(C)(C)CC2=O)Nc2n[nH]cc23)n1 [Compound 943484],IC50,[1]; [7],≤ 100 nM
same,IC50,[1]; [11],100 to 1000 nM
same,IC50,[2]; [8],≤ 100 nM
same,IC50,[2]; [12],1000 to 5000 nM
Cc1nccc([C@H]2CC[C@@]3(CC2)C2=C(CC(C)(C)CC2=O)Nc2n[nH]cc23)c1C [Compound 950478],IC50,[1]; [7],≤ 100 nM
same,IC50,[2]; [8],≤ 100 nM
CC1(C)CC(=O)C2=C(C1)Nc1n[nH]cc1C21CN(C2COC2)C1 [Compound 912076],IC50,[1]; [7],100 to 1000 nM
same,IC50,[2]; [8],1000 to 5000 nM
CCCn1nccc1-c1cccc(C2(CC)C3=C(CC(C)(C)CC3=O)Nc3n[nH]cc32)c1 (stereo not drawn) [Compound 946094],IC50,[1]; [7],100 to 1000 nM
same,IC50,[2]; [8],1000 to 5000 nM
CC1(C)CC(=O)C2=C(C1)Nc1n[nH]cc1C21CCC2(CCC(=O)N2C(=O)OC(C)(C)C)CC1 (stereo not drawn) [Compound 912217],IC50,[1]; [13],1000 to 5000 nM
same,IC50,[2]; [14],> 5000 nM
C[C@@H]1CCC[C@@]2(C1)C1=C(CC(C)(C)CC1=O)Nc1n[nH]cc12 [Compound 874537],IC50,[1]; [7],100 to 1000 nM
same,IC50,[2]; [8],100 to 1000 nM
Cc1cnccc1[C@H]1CC[C@]2(CC1)C1=C(CC(C)(C)CC1=O)Nc1n[nH]cc12 [Compound 949319],IC50,[1]; [7],≤ 100 nM
same,IC50,[2]; [8],≤ 100 nM
CC1(C)CC(=O)C2=C(C1)Nc1n[nH]cc1C21CCN(S(=O)(=O)c2cn3c(n2)CCCC3)CC1 [Compound 947472],IC50,[1]; [7],≤ 100 nM
same,IC50,[2]; [8],100 to 1000 nM
CCC1(c2cccc(OC)c2)C2=C(CC(C)(C)NC2=O)Nc2n[nH]c(C(F)(F)F)c21 (stereo not drawn) [Compound 949748],IC50,[1]; [3],≤ 100 nM
same,IC50,[2]; [5],100 to 1000 nM
O=C1C[C@@]2(CCOC2)CC2=C1C1(CCOCC1)c1c[nH]nc1N2 [Compound 901475],IC50,[1]; [7],100 to 1000 nM
same,IC50,[2]; [8],100 to 1000 nM
CCC1(c2cccc(Oc3ncccn3)c2)C2=C(CC(C)(C)CC2=O)Nc2n[nH]cc21 (stereo not drawn) [Compound 947400],IC50,[1]; [7],≤ 100 nM
same,IC50,[2]; [8],≤ 100 nM
CCC1(c2cccc(N(C)c3ccncc3)c2)C2=C(CC(C)(C)CC2=O)Nc2n[nH]cc21 (stereo not drawn) [Compound 853910],IC50,[1]; [9],100 to 1000 nM
same,IC50,[2]; [10],1000 to 5000 nM
CC1(C)CC(=O)C2=C(C1)Nc1n[nH]cc1[C@]21CCN(S(=O)(=O)c2ccccc2F)C1 [Compound 943487],IC50,[1]; [13],≤ 100 nM
same,IC50,[1]; [11],≤ 100 nM
same,IC50,[2]; [14],≤ 100 nM
same,IC50,[2]; [12],100 to 1000 nM
CC1(C)CC(=O)C2=C(C1)Nc1n[nH]cc1C21COC2(CN(C(=O)c3ccccc3)C2)C1 (stereo not drawn) [Compound 943956],IC50,[1]; [13],100 to 1000 nM
same,IC50,[2]; [14],1000 to 5000 nM
CC[C@@H]1C[C@@]2(CCO1)C1=C(CC(C)(C)CC1=O)Nc1n[nH]cc12 [Compound 924715],IC50,[1]; [7],≤ 100 nM
same,IC50,[2]; [8],100 to 1000 nM
CC[C@]1(c2cccc(-c3ccnn3C)c2)C2=C(CC3(CCCC3)NC2=O)Nc2n[nH]cc21 [Compound 948018],IC50,[1]; [9],≤ 100 nM
same,IC50,[2]; [10],≤ 100 nM
CCC1(c2cccc(-c3ccncc3F)c2)C2=C(CC(C)(C)CC2=O)Nc2n[nH]cc21 (stereo not drawn) [Compound 913349],IC50,[1]; [3],≤ 100 nM
same,IC50,[2]; [5],≤ 100 nM
CC1(C)CC(=O)C2=C(C1)Nc1n[nH]cc1C21CCN(S(=O)(=O)c2cnn(-c3ccccc3)c2)CC1 [Compound 947904],IC50,[1]; [7],≤ 100 nM
same,IC50,[2]; [8],≤ 100 nM
CCC1(c2cccc(C(F)(F)F)c2)C2=C(CCN(c3cn(C)nc3C)C2=O)Nc2n[nH]cc21 (stereo not drawn) [Compound 949641],IC50,[1]; [3],> 5000 nM
same,IC50,[2]; [5],> 5000 nM
CC1(C)CC(=O)C2=C(C1)Nc1n[nH]cc1C2(C)CCc1ccccc1 (stereo not drawn) [Compound 819562],IC50,[1]; [3],1000 to 5000 nM
same,IC50,[2]; [5],> 5000 nM
CC[C@]1(c2ccccc2)C2=C(C[C@]3(CCNC3=O)CC2=O)Nc2n[nH]cc21 [Compound 950165],IC50,[1]; [7],> 5000 nM
same,IC50,[2]; [8],> 5000 nM
CC(C)S(=O)(=O)N1CCC2(CC1)C1=C(CC(C)(C)CC1=O)Nc1n[nH]cc12 [Compound 913129],IC50,[1]; [3],≤ 100 nM
same,IC50,[1]; [11],≤ 100 nM
same,IC50,[2]; [5],≤ 100 nM
same,IC50,[2]; [12],100 to 1000 nM
CC[C@]1(c2cccc(-c3ccncc3F)c2)C2=C(CC(C)(C)NC2=O)Nc2[nH]nc(C(F)(F)F)c21 [Compound 948770],IC50,[1]; [9],100 to 1000 nM
same,IC50,[2]; [10],100 to 1000 nM
CCC1(c2cccc(S(=O)(=O)C3CCCCC3)c2)C2=C(CC(C)(C)CC2=O)Nc2n[nH]cc21 (stereo not drawn) [Compound 918273],IC50,[1]; [3],≤ 100 nM
same,IC50,[2]; [5],≤ 100 nM
CCC1(c2cccc(-c3ccncc3F)c2)C2=C(CC(C)(C)NC2=O)Nc2n[nH]c(C(F)(F)F)c21 (stereo not drawn) [Compound 947866],IC50,[1]; [9],≤ 100 nM
same,IC50,[2]; [10],≤ 100 nM
CCC1(c2cccc(-c3ccnc(C)c3)c2)C2=C(CC(C)(C)N(C)C2=O)Nc2n[nH]cc21 (stereo not drawn) [Compound 949004],IC50,[1]; [9],≤ 100 nM
same,IC50,[2]; [10],100 to 1000 nM
CC(C)Oc1ccc(S(=O)(=O)N2CCC3(CC2)C2=C(CC(C)(C)CC2=O)Nc2n[nH]cc23)cc1 [Compound 945673],IC50,[1]; [7],≤ 100 nM
same,IC50,[2]; [8],≤ 100 nM
C[C@]1(c2ccccc2)C2=C(CC3(CCCC3)CC2=O)Nc2n[nH]cc21 [Compound 792339],IC50,[1]; [9],> 1700 nM
same,IC50,[2]; [10],> 5000 nM
CC1(C)CC(=O)C2=C(C1)Nc1n[nH]cc1C21CCCCC1 [Compound 826650],IC50,[1]; [7],≤ 100 nM
same,IC50,[2]; [8],≤ 100 nM
CC1(C)CC(=O)C2=C(C1)Nc1n[nH]cc1C2(CO)CO [Compound 889570],IC50,[1]; [3],> 5000 nM
same,IC50,[2]; [5],> 5000 nM
